From patent US9006426B2, “Squaric acid derivatives as inhibitors of the nicotinamide” (Topotarget A/S, priority 2008, dated 2015) come the findings set out here.

Structures can show the parent of a compound that is named as a salt.

The test system of this assay is A2780 cells. The experiment in a line: In vitro cell proliferation assay (WST-1 assay). It is filed as cell-based. To be noted: Homo sapiens, total incubation time 72 h, WST-1 reagent. As for the experimental part:
In Vitro Cell Proliferation Assay (WST-1 Assay)
A2780 cells were seeded in 96-well plates at 3×10^3 cells/well in 100 μL of culture medium, 8 wells were left empty for media only controls.
After 24 h the compound titrations were performed, in a separate dilution plate, by serially diluting the compounds of general formula (I) in culture medium. A 100 μL of each dilution was added to the plated cells, this was done in triplicate, and controls (e.g. DMSO and blanks) were included. The plates were incubated for 24 h at 37° C. in a CO2 incubator. The compound titrations were repeated in a separate dilution plate after 24 h. The media plus compound from the assay plates were then aspirated. A 100 μL of media was then added to all wells, followed by 100 μL of each compound dilution. The plates were incubated for a further 48 h at 37° C. in a CO2 incubator (total incubation time 72 h). The number of viable cells was then assessed using Cell Proliferation Reagent WST-1. 10 μL of WST-1 reagent added to each well and incubated for one to four hours at 37° C. in CO2 incubator. The absorbance was measured (450 nm/690 nm).
The activity of compounds of general formula (I) in reducing the number of viable cells was calculated as: % activity=[(S^c−B)/(S^o−B)]×100
S^c denotes signal measured in the presence of test compound, S^o denotes signal detected in the absence of compound, and B denotes background signal, measured in blank wells containing medium only. Analyse data using GraphPad Prism.
Results can be seen in Table 1, wherein IC50 is the concentration giving 50% activity.
As a reminder, the IC50 is the concentration that inhibits the measured activity by half. `O=C(CCCCCCNc1c(Nc2ccncc2)c(=O)c1=O)N(OCCN1CCOCC1)C1CCCCC1` [Compound 1007, N-cyclohexyl-7-(3,4-dioxo-2-(pyridin-4-ylamino)cyclobut-1-enylamino)-N-(2-morpholinoethoxy)heptanamide] displayed an IC50 of 0.03 nM. This counts as picomolar.

Regarding `COCCOCCOCCN(OCCC1CCCCC1)S(=O)(=O)CCCCCCNc1c(Nc2ccncc2)c(=O)c1=O` [Compound 1008, N-(2-cyclohexylethoxy)-6-(3,4-dioxo-2-(pyridin-4-ylamino)cyclobut-1-enylamino)-N-(2-(2-(2-methoxyethoxy)ethoxy)ethyl)hexane-1-sulfonamide], the IC50 was found to be 0.48 nM.

As to `O=c1c(NCCCCCCS(=O)(=O)N(CCN2CCOCC2)OCCC2CCCCC2)c(Nc2ccncc2)c1=O` [Compound 1009, N-(2-cyclohexylethoxy)-6-(3,4-dioxo-2-(pyridin-4-ylamino)cyclobut-1-enylamino)-N-(2-morpholinoethyl)hexane-1-sulfonamide], the IC50 came out at 0.43 nM. As for `O=c1c(NCCCCCCS(=O)(=O)N(Cc2ccccc2)OCCC2CCCCC2)c(Nc2ccncc2)c1=O` [Compound 1010, N-benzyl-N-(2-cyclohexylethoxy)-6-(3,4-dioxo-2-(pyridin-4-ylamino)cyclobut-1-enylamino)hexane-1-sulfonamide], the IC50 stood at 0.93 nM. On to `CN(OCCC1CCCCC1)S(=O)(=O)CCCCCCNc1c(Nc2ccncc2)c(=O)c1=O` [Compound 1011, N-(2-cyclohexylethoxy)-6-(3,4-dioxo-2-(pyridin-4-ylamino)cyclobut-1-enylamino)-N-methylhexane-1-sulfonamide], for which the IC50 amounted to 0.085 nM. Regarding `O=C(CCCCCCNc1c(Nc2ccncc2)c(=O)c1=O)N(Cc1ccccc1)OCCN1CCOCC1` [Compound 1016, N-benzyl-7-(3,4-dioxo-2-(pyridin-4-ylamino)cyclobut-1-enylamino)-N-(2-morpholinoethoxy)heptanamide], the IC50 was determined as 0.56 nM. This IC50 lies about 6.6-fold higher than the previous one.

`O=C(CCCCCCCNc1c(Nc2ccncc2)c(=O)c1=O)N(Cc1ccccc1)OCCN1CCOCC1` [Compound 1018, N-benzyl-8-(3,4-dioxo-2-(pyridin-4-ylamino)cyclobut-1-enylamino)-N-(2-morpholinoethoxy)octanamide] had an IC50 of 0.26 nM. In the case of `O=c1c(NCCCCCCS(=O)(=O)N(CCCN2CCOCC2)CCN2CCOCC2)c(Nc2ccncc2)c1=O` [Compound 1019, 6-(3,4-dioxo-2-(pyridin-4-ylamino)cyclobut-1-enylamino)-N-(2-morpholinoethyl)-N-(3-morpholinopropyl)hexane-1-sulfonamide] it was 26 nM; in that of `O=c1c(NCCCCCCS(=O)(=O)N(CCN2CCOCC2)C2CCCCCC2)c(Nc2ccncc2)c1=O` [Compound 1021, N-cycloheptyl-6-(3,4-dioxo-2-(pyridin-4-ylamino)cyclobut-1-enylamino)-N-(2-morpholinoethyl)hexane-1-sulfonamide], 0.25 nM; in that of `O=C(OCCCCCNc1c(Nc2ccncc2)c(=O)c1=O)N(OCCN1CCOCC1)C1CCCCC1` [Compound 1026, 5-(3,4-dioxo-2-(pyridin-4-ylamino)cyclobut-1-enylamino)pentyl cyclohexyl(2-morpholinoethoxy)carbamate], 0.6 nM. In the case of `CN(C1CCCCCC1)S(=O)(=O)CCCCCCNc1c(Nc2ccncc2)c(=O)c1=O` [Compound 1027, N-cycloheptyl-6-(3,4-dioxo-2-(pyridin-4-ylamino)cyclobut-1-enylamino)-N-methylhexane-1-sulfonamide] it was 0.08 nM; in that of `O=c1c(NCCCCCCS(=O)(=O)N2CCCCCC2)c(Nc2ccncc2)c1=O` [Compound 1030, 3-(6-(azepan-1-ylsulfonyl)hexylamino)-4-(pyridin-4-ylamino)cyclobut-3-ene-1,2-dione], 0.53 nM; in that of `O=c1c(NCCCCCCS(=O)(=O)N2CCOCC2)c(Nc2ccncc2)c1=O` [Compound 1031, 3-(6-(morpholinosulfonyl)hexylamino)-4-(pyridin-4-ylamino)cyclobut-3-ene-1,2-dione], 41.3 nM. As for `O=C(CCCCCCNc1c(Nc2cccnc2)c(=O)c1=O)N(OCCN1CCOCC1)C1CCCCC1` [Compound 1033, N-cyclohexyl-7-(3,4-dioxo-2-(pyridin-3-ylamino)cyclobut-1-enylamino)-N-(morpholinoethoxy)heptanamide], 0.6 nM corresponded to half-maximal inhibition (IC50). `O=C(NCCCCCNc1c(Nc2ccncc2)c(=O)c1=O)N(OCCN1CCOCC1)C1CCCCC1` [Compound 1039, 1-cyclohexyl-3-(5-(3,4-dioxo-2-(pyridin-4-ylamino)cyclobut-1-enylamino)pentyl)-1-(2-morphinethoxy)urea] displayed an IC50 of 4.49 nM. Compound `CC(C)N(OCCN1CCOCC1)S(=O)(=O)CCCCCCNc1c(Nc2ccncc2)c(=O)c1=O` [Compound 1047, 6-(3,4-dioxo-2-(pyridin-4-ylamino)cyclobut-1-enylamino)-N-isopropyl-N-(2-morpholinoethoxy)hexane-1-sulfonamide] came in with an IC50 of 0.12 nM.

`O=c1c(NCCCCCCS(=O)(=O)N(CCCN2CCOCC2)C2CCCCC2)c(Nc2ccncc2)c1=O` [Compound 1050, N-Cyclohexyl-6-(3,4-dioxo-2-(pyridin-4-ylamino)cyclobut-1-enylamino)-N-(3-morpholinopropyl)hexane-1-sulfonamide] yielded an IC50 of 1.19 nM. `O=c1c(NCCCCCCS(=O)(=O)N(OCCN2CCOCC2)C2CCCCC2)c(Nc2ccncc2)c1=O` [Compound 1051, N-Cyclohexyl-6-(3,4-dioxo-2-(pyridin-4-ylamino)cyclobut-1-enylamino)-N-(2-morpholinoethoxy)hexane-1-sulfonamide oxalate] displayed an IC50 of 0.45 nM. In the case of `O=c1c(NCCCCCCCS(=O)(=O)N(OCCN2CCOCC2)C2CCCCC2)c(Nc2ccncc2)c1=O` [Compound 1052, N-Cyclohexyl-7-(3,4-dioxo-2-(pyridin-4-ylamino)cyclobut-1-enylamino)-N-(2-morpholinoethoxy)heptane-1-sulfonamide] it was 0.3 nM; in that of `O=c1c(NCCCCCS(=O)(=O)N(OCCN2CCOCC2)C2CCCCC2)c(Nc2ccncc2)c1=O` [Compound 1053, N-Cyclohexyl-5-(3,4-dioxo-2-(pyridin-4-ylamino)cyclobut-1-enylamino)-N-(2-morpholinoethoxy)pentane-1-sulfonamide], 0.5 nM; in that of `O=c1c(NCCCCCCS(=O)(=O)N(OCCN2CCOCC2)C2CCCC2)c(Nc2ccncc2)c1=O` [Compound 1058, N-cyclopentyl-6-(3,4-dioxo-2-(pyridin-4-ylamino)cyclobut-1-enylamino)-N-(2-morpholinoethoxy)hexane-1-sulfonamide], 0.75 nM.

For the compound `O=c1c(NCCCCCCS(=O)(=O)N(OCCN2CCOCC2)C2CCCCCC2)c(Nc2ccncc2)c1=O` [Compound 1060, N-cycloheptyl-6-(3,4-dioxo-2-(pyridin-4-ylamino)cyclobut-1-enylamino)-N-(2-morpholinoethoxy)hexane-1-sulfonamide], the midpoint of inhibition, the IC50, lay at 0.69 nM. The IC50 values of the last two compounds are within 1.5-fold of each other.

In turn, `O=c1c(NCCCCCCS(=O)(=O)N(CCCN2CCOCC2)C2CCC2)c(Nc2ccncc2)c1=O` [Compound 1062, N-cyclobutyl-6-(3,4-dioxo-2-(pyridin-4-ylamino)cyclobut-1-enylamino)-N-(3-morpholinopropyl)hexane-1-sulfonamide] had an IC50 of 0.42 nM. `O=c1c(NCCCCCCS(=O)(=O)N(CCN2CCOCC2)C2CCCCC2)c(Nc2ccncc2)c1=O` [Compound 1067, N-cyclohexyl-6-(3,4-dioxo-2-(pyridin-4-ylamino)cyclobut-1-enylamino)-N-(2-morpholinoethyl)hexane-1-sulfonamide] returned an IC50 of 1.13 nM. In the case of `CCOP(=O)(CCCCCCNc1c(Nc2ccncc2)c(=O)c1=O)NC1CCCCC1` (centres unmarked) [Compound 1068, Ethyl N-cyclohexyl-P-(6-(3,4-dioxo-2-(pyridin-4-ylamino)cyclobut-1-enylamino)hexyl)phosphonimidate] it was 0.18 nM. For `CN(OCc1ccccc1)S(=O)(=O)CCCCCCNc1c(Nc2ccncc2)c(=O)c1=O` [Compound 1076, N-(benzyloxy)-6-(3,4-dioxo-2-(pyridin-4-ylamino)cyclobut-1-enylamino)-N-methylhexane-1-sulfonamide], inhibition was half-maximal at 0.25 nM (IC50). In the case of `O=c1c(NCCCCCCS(=O)(=O)N(CCN2CCOCC2)OCc2ccccc2)c(Nc2ccncc2)c1=O` [Compound 1077, N-(benzyloxy)-6-(3,4-dioxo-2-(pyridin-4-ylamino)cyclobut-1-enylamino)-N-(2-morpholinoethyl)hexane-1-sulfonamide] it was 0.066 nM. `O=c1c(NCCCCCS(=O)(=O)N(OCCN2CCOCC2)C2CCCC2)c(Nc2ccncc2)c1=O` [Compound 1078, N-cyclopentyl-6-(3,4-dioxo-2-(pyridin-4-ylamino)cyclobut-1-enylamino)-N-(2-morpholinoethoxy)pentane-1-sulfonamide] showed an IC50 of 0.42 nM. On to `O=c1c(NCCCCCCS(=O)(=O)N(CCN2CCOCC2)c2ccc(Cl)cc2)c(Nc2ccncc2)c1=O` [Compound 1080, N-(4-chlorophenyl)-6-(3,4-dioxo-2-(pyridin-4-ylamino)cyclobut-1-enylamino)-N-(2-morpholinoethyl)hexane-1-sulfonamide], for which the concentration for half-maximal inhibition (IC50) was found to be 0.66 nM.
